# Test results as given in ChEMBL document CHEMBL1124646, “Sulfur-containing 1,3-dialkylxanthine derivatives as selective antagonists at A1-adenosine receptors” (J Med Chem, 1989).
# Experiments:
# Adenosine A2 receptor [1] = molecular target: T1, Adenosine A2 receptor (Rattus norvegicus, UniProt P29276+P30543)
# Description: Inhibition of binding of [3H]5'-(N-ethylcarbamoyl)-adenosine to adenosine A2 receptor in rat striatal membranes
# [2] = molecular target: Adenosine receptor A1 (Rattus norvegicus); assay: Inhibitory selectivity for A1 receptor in rat striatal membranes and Adenosine A1 receptor in rat cortical membranes
# [3] = molecular target: Adenosine receptors; A1 & A2 (Rattus norvegicus) (UniProt P29276+P25099+P30543); assay: Inhibitory selectivity for A2 receptor in rat striatal membranes and A1 receptor in rat cortical membranes; assay type: cell membranes; conditions: Striatum, Membrane
# Adenosine A2 receptor [4] = molecular target: T1, Adenosine A2 receptor; assay type: cell membranes, Membrane
# Adenosine receptor A1 [5] = molecular target: T2, Adenosine receptor A1 (Rattus norvegicus, UniProt P25099); assay: Inhibition of binding of 1 nM [3H]N-6-(phenylisopropyl)adenosine to adenosine A1 receptor in rat cortical membranes; assay type: cell membranes, Membrane
# T2 sequence (P25099 whole entry): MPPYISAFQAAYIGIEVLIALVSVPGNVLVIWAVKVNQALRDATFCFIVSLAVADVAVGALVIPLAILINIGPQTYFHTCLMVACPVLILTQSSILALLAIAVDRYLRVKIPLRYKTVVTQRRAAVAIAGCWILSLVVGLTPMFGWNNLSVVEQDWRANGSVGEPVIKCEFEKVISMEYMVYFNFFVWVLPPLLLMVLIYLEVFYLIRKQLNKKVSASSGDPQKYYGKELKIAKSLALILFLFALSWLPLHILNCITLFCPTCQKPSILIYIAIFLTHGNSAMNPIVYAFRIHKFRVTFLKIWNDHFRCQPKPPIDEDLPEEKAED
# Adenosine receptor A1 [6] = molecular target: T2, Adenosine receptor A1; assay: Inhibition of 1 nM [3H]N-6-(phenylisopropyl)adenosine binding to adenosine A1 receptors in rat cortical membranes; assay type: cell membranes, Membrane
# [7] = molecular target: Adenosine receptors; A1 & A2 (Rattus norvegicus, UniProt P29276+P25099+P30543); assay: Inhibitory selectivity for A1 receptor in rat striatal membranes and Adenosine A1 receptor in rat cortical membranes; assay type: cell membranes, Striatum, Membrane
# Adenosine receptor A1 [8] = molecular target: T2, Adenosine receptor A1; assay: Inhibition of 1 nM [3H]N-6-(phenylisopropyl)adenosine binding to A1 receptors in rat cortical membranes; assay type: cell membranes, Membrane
smiles,measurement,setting,value
Cn1c(=S)c2nc(-c3ccccc3)[nH]c2n(C)c1=O,Ki,Adenosine A2 receptor [1],11300 nM
CCCn1c(=O)c2nc(-c3ccc(OCC(=O)NCCNC(=O)CCCCCCC(=O)ON4C(=O)CCC4=O)cc3)[nH]c2n(CCC)c1=S,Ki,[2],33.5 nM
CCCn1c(=O)c2nc(-c3ccsc3)[nH]c2n(CCC)c1=O,Ki,Adenosine A2 receptor [1],121 nM
CCCn1c(=O)c2nc(-c3ccc(OCC(=O)NCCNC(=O)CCCCCCC(=O)NCc4cccs4)cc3)[nH]c2n(CCC)c1=O,Ratio,[3],85
same,Ki,Adenosine A2 receptor [4],630 nM
CCCn1c(=O)c2nc(-c3ccco3)[nH]c2n(CCC)c1=O,Ki,Adenosine A2 receptor [1],640 nM
same,Ki,Adenosine receptor A1 [5],37 nM
Cn1c(=O)c2nc(-c3ccccc3)[nH]c2n(C)c1=S,Ki,Adenosine A2 receptor [1],> 7000 nM
same,Ki,Adenosine receptor A1 [5],38 nM
Cn1c(=O)c2nc(-c3ccco3)[nH]c2n(C)c1=S,Ki,Adenosine A2 receptor [1],4450 nM
same,Ki,Adenosine receptor A1 [5],182 nM
CCCn1c(=O)c2nc(-c3ccc(OCC(=O)NCCNC(=O)C(N)CCCCNC(=O)OCc4ccccc4)cc3)[nH]c2n(CCC)c1=S.O=C(O)C(F)(F)F (stereo not drawn),Ratio,[3],36
same,Ki,Adenosine A2 receptor [4],322 nM
same,Ki,Adenosine receptor A1 [6],6.8 nM
CCCn1c(=O)c2nc(-c3ccccc3)[nH]c2n(CCC)c1=S,Ki,Adenosine A2 receptor [1],422 nM
same,Ki,Adenosine receptor A1 [5],16.1 nM
Cn1c(=O)c2nc(-c3ccoc3)[nH]c2n(C)c1=O,Ki,Adenosine A2 receptor [1],984 nM
same,Ki,Adenosine receptor A1 [5],72.4 nM
CCCn1c(=O)c2nc(-c3ccc(OCC(=O)NCCN)cc3)[nH]c2n(CCC)c1=S,Ki,Adenosine A2 receptor [1],26.3 nM
CCCn1c(=O)c2nc(-c3ccc(OCC(=O)O)cc3)[nH]c2n(CCC)c1=S,Ki,Adenosine A2 receptor [1],315 nM
CCCn1c(=O)c2nc(-c3ccc(OCC(=O)NCCNC(=O)C(CCCCNC(=O)OCc4ccccc4)NC(=O)OC(C)(C)C)cc3)[nH]c2n(CCC)c1=S (stereo not drawn),Ki,Adenosine A2 receptor [1],870 nM
same,Ki,Adenosine receptor A1 [5],84 nM
CCCn1c(=S)c2nc(C3CCCC3)[nH]c2n(CCC)c1=S,Ratio,[3],572
same,Ki,Adenosine A2 receptor [4],2780 nM
CCCn1c(=O)c2nc(-c3ccc(OCC(=O)NCCNC(=O)Cc4ccc(I)s4)cc3)[nH]c2n(CCC)c1=O,Ratio,[3],10.3
same,Ki,Adenosine A2 receptor [4],116 nM
CCCn1c(=O)c2[nH]c(-c3ccc(OCC(=O)NCCNC)cc3)nc2n(CCC)c1=O,Ki,Adenosine receptor A1 [5],15.1 nM
Cn1c(=O)c2nc(-c3ccsc3)[nH]c2n(C)c1=O,Ki,Adenosine A2 receptor [1],841 nM
CCCn1c(=O)c2nc(-c3ccc(OCC(=O)NCCN(C)C)cc3)[nH]c2n(CCC)c1=S,Ki,Adenosine A2 receptor [1],27.9 nM
Cn1c(=S)c2nc(C3CCCC3)[nH]c2n(C)c1=S,Ratio,[3],285
same,Ki,Adenosine A2 receptor [4],11500 nM
CCCn1c(=O)c2nc(-c3ccc(OCC(=O)OCC)cc3)[nH]c2n(CCC)c1=S,Ki,Adenosine A2 receptor [1],> 5000 nM
Cn1c(=O)c2nc(-c3cccs3)[nH]c2n(C)c1=O,Ki,Adenosine A2 receptor [1],1630 nM
Cn1c(=O)c2nc(C3CCCC3)[nH]c2n(C)c1=S,Ratio,[3],136
same,Ki,Adenosine A2 receptor [4],1390 nM
same,Ki,Adenosine receptor A1 [6],10.2 nM
Br.Br.CCCn1c(=O)c2nc(-c3ccc(OCC(=O)NCCNC(=O)C(N)CCCCN)cc3)[nH]c2n(CCC)c1=O (stereo not drawn),Ki,Adenosine A2 receptor [1],180 nM
same,Ki,Adenosine receptor A1 [5],0.87 nM
Cn1c(=O)c2nc(-c3cccs3)[nH]c2n(C)c1=S,Ki,Adenosine A2 receptor [1],1740 nM
CCCn1c(=O)c2nc(-c3ccc(OCC(=O)NCCNC(=O)C(N)Cc4cccs4)cc3)[nH]c2n(CCC)c1=O.O=C(O)C(F)(F)F (stereo not drawn),Ki,[7],1.3 nM
CCCn1c(=O)c2nc(-c3cccs3)[nH]c2n(CCC)c1=O,Ki,Adenosine A2 receptor [1],381 nM
Cn1c(=O)c2nc(-c3ccco3)[nH]c2n(C)c1=O,Ki,Adenosine A2 receptor [1],2780 nM
same,Ki,Adenosine receptor A1 [5],350 nM
CCCn1c(=O)c2nc(-c3ccc(OCC(=O)N(C)CCN(C)C)cc3)[nH]c2n(CCC)c1=S,Ki,Adenosine A2 receptor [1],24.5 nM
CCCn1c(=S)c2nc(C3CCCC3)[nH]c2n(CCC)c1=O,Ki,Adenosine A2 receptor [1],3360 nM
CCCn1c(=O)c2nc(-c3ccc(OCC(=O)OCC)cc3)[nH]c2n(CCC)c1=O,Ki,Adenosine A2 receptor [1],> 5000 nM
CCCn1c(=O)c2[nH]c(-c3ccc(OCC(=O)NCCNC(=O)C(CCCCNC(=O)OCc4ccccc4)NC(=O)OC(C)(C)C)cc3)nc2n(CCC)c1=O (stereo not drawn),Ki,Adenosine receptor A1 [8],12 nM
CCCn1c(=O)c2nc(-c3ccc(OCC(=O)NCCNC(=O)C(N)CCCCNC(=O)OCc4ccccc4)cc3)[nH]c2n(CCC)c1=O.O=C(O)C(F)(F)F (stereo not drawn),Ratio,[3],30
same,Ki,Adenosine A2 receptor [4],191 nM
same,Ki,Adenosine receptor A1 [6],6.4 nM
CCCn1c(=O)c2nc(-c3ccco3)[nH]c2n(CCC)c1=S,Ki,Adenosine A2 receptor [1],594 nM
same,Ki,Adenosine receptor A1 [5],32 nM
CCCn1c(=O)c2[nH]c(-c3ccc(OCC(=O)NCCNC(=O)[C@@H](Cc4cccs4)NC(=O)OC(C)(C)C)cc3)nc2n(CCC)c1=O,Ki,Adenosine receptor A1 [8],17 nM
CCCn1c(=O)c2nc(-c3ccc(OCC(=O)NCCN(C)C)cc3)[nH]c2n(CCC)c1=O,Ki,Adenosine A2 receptor [1],5.03 nM
same,Ki,Adenosine receptor A1 [5],2.8 nM
CCCn1c(=O)c2nc(-c3ccc(OCC(=O)NCCNC(=O)Cc4cccs4)cc3)[nH]c2n(CCC)c1=O,Ki,Adenosine A2 receptor [1],147 nM
CCCn1c(=O)c2[nH]c(C3CCCC3)nc2n(CCC)c1=S,Ki,Adenosine A2 receptor [1],314 nM
CCCn1c(=O)c2nc(-c3cccs3)[nH]c2n(CCC)c1=S,Ki,Adenosine A2 receptor [1],> 5000 nM
Br.Br.CCCn1c(=O)c2nc(-c3ccc(OCC(=O)NCCNC(=O)C(N)CCCCN)cc3)[nH]c2n(CCC)c1=S (stereo not drawn),Ki,Adenosine A2 receptor [1],46.8 nM
same,Ki,Adenosine receptor A1 [5],13 nM
Cn1c(=S)c2nc(C3CCCC3)[nH]c2n(C)c1=O,Ratio,[3],44.4
same,Ki,Adenosine A2 receptor [4],8980 nM
CCn1c(=S)c2nc(-c3ccccc3)[nH]c2n(CC)c1=O,Ki,Adenosine A2 receptor [1],3510 nM
